In PubChem BioAssay (NCI):
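Tested at 5 concentrations; 48 h exposure; 96-well plates; endpoints linearly interpolated, else capped at highest concentration. Definition used: TGI = concentration required for complete inhibition of growth.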

What was measured:
Test in all cases: DTP human tumour cell line panel, 48 h
SK-MEL-2 melanoma = system: SK-MEL-2 melanoma
OVCAR-3 ovarian = system: OVCAR-3 ovarian
PC-3 prostate = system: PC-3 prostate
K-562 leukemia = system: K-562 leukemia
UO-31 renal = system: UO-31 renal
UACC-257 melanoma = system: UACC-257 melanoma
SK-MEL-5 melanoma = system: SK-MEL-5 melanoma
OVCAR-8 ovarian = system: OVCAR-8 ovarian
HCT-15 colon = system: HCT-15 colon
HOP-62 NSCLC = system: HOP-62 NSCLC
KM12 colon = system: KM12 colon
NCI-H226 lung = system: NCI-H226 lung
SNB-19 CNS = system: SNB-19 CNS

SMILES	TGI (SK-MEL-2 melanoma)	TGI (OVCAR-3 ovarian)	TGI (PC-3 prostate)	TGI (K-562 leukemia)	TGI (UO-31 renal)	TGI (UACC-257 melanoma)	TGI (SK-MEL-5 melanoma)	TGI (OVCAR-8 ovarian)	TGI (HCT-15 colon)	TGI (HOP-62 NSCLC)	TGI (KM12 colon)	TGI (NCI-H226 lung)	TGI (SNB-19 CNS)
CN1CCN(C2CC(=O)c3c(Cl)sc(Cl)c32)CC1 (stereo unspecified)	> 59.9 µM	38.7 µM	> 100 µM	> 100 µM	17 µM	> 61.5 µM	> 56.4 µM	> 21.3 µM	> 31.6 µM	42.6 µM	30.9 µM	> 65.3 µM	> 100 µM
CCOC(=O)c1sc2[n+](c1C)C(=O)/C(=C/c1ccccc1Cl)S2	> 74.7 µM	21.1 µM	> 85.6 µM	24.2 µM	25 µM	> 70.2 µM	1.89 µM	35 µM	12.9 µM	60.9 µM	18.2 µM	23.1 µM	> 42.7 µM
CC(C)(C)C1=CC(O)(c2c3ccccc3c(C3(O)C=C(C(C)(C)C)C(=O)C(C(C)(C)C)=C3)c3ccccc23)C=C(C(C)(C)C)C1=O	> 100 µM	> 100 µM	> 100 µM	> 100 µM	> 100 µM	> 100 µM	> 100 µM	> 100 µM	> 100 µM	> 100 µM	> 100 µM	> 100 µM	> 100 µM
COc1nc2ncc([C@@H](O)[C@H](O)CO)nc2c(=O)[nH]1	> 100 µM	> 100 µM	> 100 µM	> 100 µM	> 100 µM	> 100 µM	> 100 µM	> 100 µM	> 100 µM	> 100 µM	> 100 µM	> 100 µM	> 100 µM
CCOC(=O)/C=C/C(Br)=C(Br)/C=C/C(=O)OCC	49.3 µM	24.9 µM	28 µM	10.9 µM	23.8 µM	43.5 µM	27.7 µM	21.3 µM	10.7 µM	36.7 µM	32.6 µM	56.1 µM	33.6 µM
CSC(=N/N=C(\C)c1ccc(S(=O)(=O)N(C)c2ccccc2)cc1)SC	> 100 µM	> 100 µM	> 100 µM	> 100 µM	> 100 µM	> 100 µM	> 100 µM	> 100 µM	> 100 µM	> 100 µM	> 100 µM	> 100 µM	> 100 µM
CC(NC1=NCCO1)c1ccco1 (stereo unspecified)	> 100 µM	> 100 µM	> 100 µM	> 100 µM	> 100 µM	> 100 µM	> 100 µM	> 100 µM	> 100 µM	> 100 µM	90.2 µM	> 100 µM	> 100 µM
CN1C(=O)[C@](C)(Cc2ccc(F)cc2)N(C(=O)OC(C)(C)C)[C@@H]1C(C)(C)C	> 100 µM	84 µM	> 100 µM	65.7 µM	> 100 µM	92.3 µM	37.6 µM	91.7 µM	> 100 µM	> 100 µM	> 100 µM	67.3 µM	> 100 µM
C/C(=N/NC(=O)c1ccccc1Nc1ccccc1C(=O)N/N=C(\C)c1ccc(C)cc1)c1ccc(C)cc1	> 100 µM	> 100 µM	> 100 µM	> 100 µM	> 100 µM	> 100 µM	> 100 µM	> 100 µM	> 100 µM	> 100 µM	> 100 µM	> 100 µM	> 100 µM
Cc1nc(C)c(C(=O)NNC(=O)c2ccccc2)cc1C(=O)NNC(=O)c1ccccc1	> 100 µM	> 100 µM	> 100 µM	> 100 µM	> 100 µM	> 100 µM	> 100 µM	> 100 µM	> 100 µM	> 100 µM	> 10 µM	> 100 µM	> 100 µM
N#Cc1c(NC(=S)Nc2ccccc2)sc2c1CCCC2	> 100 µM	> 100 µM	> 100 µM	> 100 µM	> 100 µM	> 100 µM	> 100 µM	> 100 µM	> 100 µM	> 100 µM	> 100 µM	> 100 µM	> 100 µM
Cc1cccc2c1C(=O)/C(=C/c1ccccc1C(=O)O)C2	> 100 µM	> 100 µM	> 100 µM	> 100 µM	> 100 µM	> 100 µM	> 100 µM	> 100 µM	> 100 µM	> 100 µM	> 100 µM	> 100 µM	> 100 µM
COc1cc(C)c(S(=O)(=O)N(CCCN)OCCCN)c(C)c1C	51.5 µM	> 100 µM	77.3 µM	31.7 µM	> 100 µM	62.3 µM	53 µM	> 100 µM	> 100 µM	> 100 µM	> 100 µM	> 100 µM	> 100 µM
COc1cc(OC)cc(-c2nc3ccccc3c(=O)[nH]2)c1	> 100 µM	> 100 µM	> 100 µM	> 100 µM	> 100 µM	> 100 µM	> 100 µM	63.8 µM	> 100 µM	> 100 µM	> 100 µM	> 100 µM	> 100 µM
NS(=O)(=O)c1ccc(NS(=O)(=O)c2ccc(NC(=O)N(c3ccccc3)c3ccccc3)cc2)cc1	> 100 µM	50.2 µM	> 100 µM	> 100 µM	> 100 µM	> 100 µM	> 100 µM	> 100 µM	> 100 µM	> 100 µM	> 100 µM	> 100 µM	> 100 µM
Nc1nn2cc(-c3ccccc3)[n+](CC(=O)c3ccccc3)c2s1	30.4 µM	71.3 µM	> 100 µM	66.7 µM	> 100 µM	70.5 µM	73.8 µM	> 100 µM	> 100 µM	87.5 µM	47.1 µM	> 100 µM	52.9 µM
O=C(CSCC(=O)N/N=C\c1cccc(Br)c1)N/N=C\c1cccc(Br)c1	91.3 µM	26.6 µM	38.1 µM	68.4 µM	33.1 µM	33.2 µM	42.3 µM	35.4 µM	86.5 µM	31.7 µM	32.8 µM	36.5 µM	> 100 µM
